Details: for molar entropy: 101.33 kPa, Small (less than 1 g) adiabatic calorimetry

N.NS(=O)(=O)O [ammonium sulfamate]
Details	molar entropy [J/K/mol]
5 K, Crystal 2	0.0002827
10 K, Crystal 2	0.07483
15 K, Crystal 2	0.4656
20 K, Crystal 2	1.33
25 K, Crystal 2	2.661
30 K, Crystal 2	4.49
35 K, Crystal 2	6.735
40 K, Crystal 2	9.229
45 K, Crystal 2	12.14
50 K, Crystal 2	15.13
55 K, Crystal 2	18.29
60 K, Crystal 2	21.53
65 K, Crystal 2	24.86
70 K, Crystal 2	28.35
75 K, Crystal 2	31.84
80 K, Crystal 2	35.42
90 K, Crystal 2	42.65
100 K, Crystal 2	49.97
110 K, Crystal 2	57.29
120 K, Crystal 2	64.6
130 K, Crystal 2	71.75
140 K, Crystal 2	78.82
150 K, Crystal 2	85.64
160 K, Crystal 2	92.29
170 K, Crystal 2	98.94
180 K, Crystal 2	105.59
190 K, Crystal 2	112.25
200 K, Crystal 2	118.07
210 K, Crystal 2	123.89
220 K, Crystal 2	130.54
230 K, Crystal 2	136.36
240 K, Crystal 2	141.35
260 K, Crystal 1	152.99
270 K, Crystal 1	157.97
280 K, Crystal 1	163.79
290 K, Crystal 1	168.78
298.15 K, Crystal 1	172.94
300 K, Crystal 1	173.77
310 K, Crystal 1	178.76
320 K, Crystal 1	183.75
330 K, Crystal 1	188.74

Details	Normal melting temperature [°C]	Triple point temperature [K]
Crystal 1, DTA	133.0	–
Crystal 2, Adiabatic calorimetry	–	254.5

From the NIST ThermoML archive (doi:10.1016/j.jct.2019.01.021)
